Measurements reported in ChEMBL document CHEMBL1201862, “PubChem BioAssay data set” (2004).
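Dose response: 5 concentrations. Exposure: 48 h. Format: 96-well plates. Endpoint: linear interpolation; highest concentration if not reached. Here, GI50 denotes the concentration required for 50% inhibition of growth.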 Activity calls are given as the source filed them. Cut-off read from the data, not from the text of the source: active = GI50 up to about 1.1 µM and inactive = higher.

How the values were obtained:
Test in all cases: NCI anticancer screen, dose series, 48 h
SK-OV-3 = tested on: SK-OV-3
UACC-257 = tested on: UACC-257
NCI-H522 = tested on: NCI-H522
HCT-15 = tested on: HCT-15
UO-31 = tested on: UO-31
HL-60 = tested on: HL-60
EKVX = tested on: EKVX
SNB-19 = tested on: SNB-19
Malme-3M = tested on: Malme-3M
OVCAR-5 = tested on: OVCAR-5
K562 = tested on: K562
OVCAR-3 = tested on: OVCAR-3
SN12C = tested on: SN12C
NCI-H226 = tested on: NCI-H226
HT-29 = tested on: HT-29
OVCAR-4 = tested on: OVCAR-4
CAKI-1 = tested on: CAKI-1
SF-539 = tested on: SF-539
786-0 = tested on: 786-0
LOX IMVI = tested on: LOX IMVI

SMILES	GI50 (SK-OV-3)	GI50 (UACC-257)	GI50 (NCI-H522)	GI50 (HCT-15)	GI50 (UO-31)	GI50 (HL-60)	GI50 (EKVX)	GI50 (SNB-19)	GI50 (Malme-3M)	GI50 (OVCAR-5)	GI50 (K562)	GI50 (OVCAR-3)	GI50 (SN12C)	GI50 (NCI-H226)	GI50 (HT-29)	GI50 (OVCAR-4)	GI50 (CAKI-1)	GI50 (SF-539)	GI50 (786-0)	GI50 (LOX IMVI)
Cc1nc2ccc(S(=O)(=O)Nc3nccs3)cc2c(=O)n1NS(=O)(=O)c1nccs1	> 100 µM (inactive)	> 100 µM (inactive)	60.8 µM (inactive)	> 100 µM	13.7 µM (inactive)	79.1 µM (inactive)	> 100 µM (inactive)	> 100 µM (inactive)	> 100 µM (inactive)	> 100 µM (inactive)	69.7 µM (inactive)	> 100 µM (inactive)	> 100 µM (inactive)	> 100 µM (inactive)	41.5 µM (inactive)	> 100 µM (inactive)	> 100 µM (inactive)	> 100 µM (inactive)		
CN1CN(c2ccccc2)C2(CCN(CCCC(=O)c3cccs3)CC2)C1=O	38.4 µM (inactive)	29 µM (inactive)	> 100 µM (inactive)	34.7 µM	33 µM (inactive)	52.8 µM (inactive)	31.5 µM (inactive)	47.5 µM (inactive)	54.1 µM (inactive)	35.9 µM (inactive)	38.5 µM (inactive)	37.2 µM (inactive)	48.4 µM (inactive)	34.5 µM (inactive)	21.2 µM (inactive)		33.1 µM (inactive)	23.8 µM (inactive)	35.6 µM (inactive)	47.1 µM (inactive)
Cc1ccccc1N1C(=O)C2C=CC(n3[nH]c(=O)n(Cc4ccccc4)c3=O)CC2C1=O (configuration not stated)	> 100 µM (inactive)	> 100 µM (inactive)	> 100 µM (inactive)	> 100 µM	> 100 µM (inactive)	> 100 µM (inactive)	> 100 µM (inactive)	> 100 µM (inactive)	> 100 µM (inactive)	> 100 µM (inactive)	> 100 µM (inactive)	> 100 µM (inactive)	> 100 µM (inactive)	> 100 µM (inactive)	> 100 µM (inactive)		> 100 µM (inactive)	> 100 µM (inactive)	> 100 µM (inactive)	> 100 µM (inactive)
Oc1cc(O)c2c(c1)O[C@H](c1ccc(O)c(O)c1)[C@@H](O)C2 [CIANIDANOL]		> 100 µM (inactive)	> 100 µM (inactive)	> 100 µM	> 100 µM (inactive)	> 100 µM (inactive)	> 100 µM (inactive)	> 100 µM (inactive)	> 100 µM (inactive)	> 100 µM (inactive)	> 100 µM (inactive)	> 100 µM (inactive)	> 100 µM (inactive)	> 100 µM (inactive)	> 100 µM (inactive)	> 100 µM (inactive)	> 100 µM (inactive)	> 100 µM (inactive)	> 100 µM (inactive)	> 100 µM (inactive)
O=c1c2ccccc2nc(-c2ccc(Br)cc2)n1NC1OC(CO)C(O)C(O)C1O (configuration not stated)	> 100 µM (inactive)	> 100 µM (inactive)	81.7 µM (inactive)	> 100 µM	78 µM (inactive)	34.1 µM (inactive)	78.3 µM (inactive)	> 100 µM (inactive)	> 100 µM (inactive)	> 100 µM (inactive)	43.6 µM (inactive)	31.3 µM (inactive)	> 100 µM (inactive)	> 100 µM (inactive)	> 100 µM (inactive)	42 µM (inactive)	> 100 µM (inactive)	> 100 µM (inactive)	> 100 µM (inactive)	
COc1cccc(/C=C2\C(=O)N(C(=O)Cc3ccccc3)N=C2C)c1		> 100 µM (inactive)	> 100 µM (inactive)	> 100 µM	> 100 µM (inactive)	> 100 µM (inactive)	> 100 µM (inactive)	> 100 µM (inactive)	> 100 µM (inactive)	> 100 µM (inactive)	> 100 µM (inactive)	> 100 µM (inactive)	> 100 µM (inactive)	> 100 µM (inactive)	> 100 µM (inactive)	> 100 µM (inactive)	> 100 µM (inactive)	> 100 µM (inactive)	> 100 µM (inactive)	> 100 µM (inactive)
C=C(NC(=O)C(=C)NC(=O)c1ccc2c(n1)-c1coc(n1)C(=C)NC(=O)C(=C)NC(=O)c1nc(oc1C)C(=C)NC(=O)C(C(C)(C)O)NC(=O)C(=C)NC(=O)c1coc(n1)/C(=C/C)NC(=O)[C@H]([C@@H](C)O)NC(=O)c1csc-2n1)C(N)=O (some centres not stated)		> 87.5 µM (inactive)	> 87.5 µM (inactive)	> 87.5 µM	> 87.5 µM (inactive)	> 87.5 µM (inactive)	> 87.5 µM (inactive)	> 87.5 µM (inactive)	> 87.5 µM (inactive)	> 87.5 µM (inactive)	> 87.5 µM (inactive)	> 87.5 µM (inactive)	> 87.5 µM (inactive)	> 87.5 µM (inactive)	> 8.75 µM (inactive)	> 87.5 µM (inactive)	> 87.5 µM (inactive)	> 87.5 µM (inactive)	> 87.5 µM (inactive)	53.8 µM (inactive)
CS(=O)(=O)c1n[nH]c2nc(O)nc(O)c12	> 10 µM (inactive)	> 10 µM (inactive)	> 10 µM (inactive)	> 10 µM		> 10 µM (inactive)	> 10 µM (inactive)	> 10 µM (inactive)	> 10 µM (inactive)	> 10 µM (inactive)		> 10 µM (inactive)	> 10 µM (inactive)	> 10 µM (inactive)	> 10 µM (inactive)	> 10 µM (inactive)	> 10 µM (inactive)	> 10 µM (inactive)	> 10 µM (inactive)	> 10 µM (inactive)
COC(=O)c1ccc(NC(=O)c2cc(OC)c(OC)c(OC)c2)cc1	11.3 µM (inactive)	0.0215 µM (active)	0.836 µM (active)	1.08 µM	2.05 µM (inactive)	2.09 µM (inactive)	38.4 µM (inactive)	1 µM (active)	0.644 µM (active)		1.97 µM (inactive)	1.08 µM (active)	1.85 µM (inactive)	2.54 µM (inactive)	1.35 µM (inactive)	18.9 µM (inactive)	2.16 µM (inactive)	1.21 µM (inactive)	0.859 µM (active)	9.31 µM (inactive)
CCN(CCO)C(=O)C1(c2ccccc2)CCCCC1	> 10 µM (inactive)		> 10 µM (inactive)	> 10 µM	> 10 µM (inactive)	> 10 µM (inactive)	> 10 µM (inactive)	> 10 µM (inactive)	> 10 µM (inactive)	> 10 µM (inactive)	> 10 µM (inactive)	> 10 µM (inactive)	> 10 µM (inactive)	> 10 µM (inactive)	> 10 µM (inactive)	> 10 µM (inactive)	> 10 µM (inactive)	> 10 µM (inactive)		> 10 µM (inactive)
CCOC(=O)CC[C@H](NC(=O)c1nc[nH]c1/N=N/N(C)C)C(=O)OCC	> 100 µM (inactive)	> 100 µM (inactive)	> 100 µM (inactive)	> 100 µM	> 100 µM (inactive)	> 100 µM (inactive)	> 100 µM (inactive)	> 100 µM (inactive)	> 100 µM (inactive)		> 100 µM (inactive)	> 100 µM (inactive)	> 100 µM (inactive)	> 100 µM (inactive)	> 100 µM (inactive)	> 100 µM (inactive)	> 100 µM (inactive)	> 100 µM (inactive)	> 100 µM (inactive)	> 100 µM (inactive)
COc1ccc(C2C3C(=O)C=CC(=O)C3[C@@H]2C)cc1OC (some centres not stated)	> 100 µM (inactive)	> 100 µM (inactive)	17.5 µM (inactive)	23.6 µM	73.5 µM (inactive)	> 10 µM (inactive)	> 100 µM (inactive)	12.2 µM (inactive)	> 100 µM (inactive)	> 100 µM (inactive)	62.7 µM (inactive)	> 100 µM (inactive)		81.7 µM (inactive)	> 100 µM (inactive)	> 100 µM (inactive)	> 100 µM (inactive)	> 100 µM (inactive)	40.7 µM (inactive)	42.3 µM (inactive)
O=P1(O)c2ccccc2CS(=O)(=O)Cc2ccccc21	> 100 µM (inactive)	> 100 µM (inactive)	> 100 µM (inactive)	> 100 µM	> 100 µM (inactive)	> 100 µM (inactive)	> 100 µM (inactive)	> 100 µM (inactive)		> 100 µM (inactive)	> 100 µM (inactive)	> 100 µM (inactive)	> 100 µM (inactive)	> 100 µM (inactive)	> 100 µM (inactive)	> 100 µM (inactive)	> 100 µM (inactive)	> 100 µM (inactive)	> 100 µM (inactive)	> 100 µM (inactive)
C(=C\Nc1ccc(Oc2ccccc2)cc1)/C=N/c1ccc(Oc2ccccc2)cc1		17.1 µM (inactive)	20 µM (inactive)	19.5 µM	18.4 µM (inactive)	23.7 µM (inactive)	18.4 µM (inactive)	17.3 µM (inactive)	17.1 µM (inactive)	25 µM (inactive)	22.5 µM (inactive)	19 µM (inactive)	14.8 µM (inactive)	55.3 µM (inactive)	15.9 µM (inactive)	17.1 µM (inactive)	18.7 µM (inactive)	16.4 µM (inactive)	16.6 µM (inactive)	15 µM (inactive)
COc1ccc(-c2csc3c2[N+]2(C)C=CC=C2C3N2CCCC2)cc1 (configuration not stated)	49.1 µM (inactive)	7.4 µM (inactive)	2.43 µM (inactive)	37.9 µM	57 µM (inactive)	3.61 µM (inactive)	20.5 µM (inactive)	26.6 µM (inactive)	12.2 µM (inactive)	39 µM (inactive)	6.61 µM (inactive)	13.3 µM (inactive)		2.21 µM (inactive)	16.9 µM (inactive)	46.8 µM (inactive)	> 100 µM (inactive)	17.7 µM (inactive)	41.6 µM (inactive)	35 µM (inactive)
